One block for each molecule: values may come before it. Peptide text beside a SMILES is read from it.
Experiments:
Tubulin = assay: Binding affinity to microtubules (unknown origin) assessed as dissociation constant; type: protein-complex assay, Homo sapiens
Tubulin (Homo sapiens) [1] = target: T1, Tubulin (Homo sapiens) (UniProt P68371+Q9H4B7+P0DPH7+P68366+Q13509+Q71U36+P04350+Q3ZCM7+P07437+P68363+Q9BQE3+Q6PEY2+Q13885+Q9BVA1+Q9BUF5); assay: Binding affinity to tubulin (unknown origin) assessed as binding constant by […] analysis; type: protein-complex assay
Tubulin (Homo sapiens) [2] = target: T1, Tubulin (Homo sapiens); assay: Binding affinity to microtubules (unknown origin) assessed as binding constant by turbidity assay; type: protein-complex assay
Tubulin (Homo sapiens) [3] = target: T1, Tubulin (Homo sapiens); assay: Binding affinity to tubulin (unknown origin) assessed as binding constant; type: protein-complex assay
[4] = Ratio of drug concentration in CSF to plasma in Sprague-Dawley rat at 15 mg/kg,IV measured after 1 hrs; type: ADME, organism-based; conditions: CSF and plasma

Kd (Tubulin): 64.1 µM
SMILES: CC[C@H](C)[C@H](NC(=O)[C@H](CCC(N)=O)NC(=O)[C@@H](NC(=O)[C@H](CO)NC(=O)CNC(=O)CNC(=O)CNC(=O)[C@@H]1CCCN1C(=O)[C@@H](NC(=O)[C@H](Cc1c[nH]cn1)NC(=O)[C@H](CCCCN)NC(=O)[C@H](CCCCN)NC(=O)CNC(=O)CNC(=O)CNC(=O)[C@@H](N)CS)C(C)C)C(C)C)C(=O)N[C@H](C(=O)N[C@@H](Cc1ccc(O)cc1)C(=O)N[C@@H](CCCCN)C(=O)N1CCC[C@H]1C(=O)N[C@H](C(=O)N[C@@H](CC(=O)O)C(=O)N[C@@H](CC(C)C)C(=O)O)C(C)C)C(C)C

Activity (Tubulin (Homo sapiens) [1]): 1.14 10^3/M
SMILES: CC[C@H](C)[C@H](NC(=O)[C@H](CO)NC(=O)[C@@H](NC(=O)[C@H](C)NC(=O)[C@@H](N)CC(N)=O)C(C)C)C(=O)N[C@@H](CCC(N)=O)C(=O)O (H-NAVSIQ-OH)

Kb (Tubulin (Homo sapiens) [2]): 2.65 10^4/M
SMILES: CC(C)C[C@H](NC(=O)[C@H](Cc1ccccc1)NC(=O)[C@@H](NC(=O)[C@H](CCC(=O)O)NC(=O)[C@@H](N)CC(N)=O)C(C)C)C(=O)N[C@@H](CC(=O)O)C(=O)N[C@H](C(=O)N[C@@H](CCC(N)=O)C(=O)O)[C@@H](C)O (H-NEVFLDTQ-OH)

Kb (Tubulin (Homo sapiens) [3]): 2.35 10^5/M
SMILES: CC(C)C[C@H](NC(=O)[C@@H](N)CO)C(=O)N[C@@H](CCCCN)C(=O)N1CCC[C@H]1C(=O)N[C@@H](C)C(=O)N[C@@H](C)C(=O)N[C@@H](CC(N)=O)C(=O)N[C@@H](CC(C)C)C(=O)N1CCC[C@H]1C(=O)N[C@@H](CC(C)C)C(=O)N[C@@H](CCCNC(=N)N)C(=O)N[C@@H](Cc1ccccc1)C(=O)O (H-SLKPAANLPLRF-OH)

Kp at 1 h [4]: 0.138
SMILES: CC[C@H](C)[C@H](NC(=O)[C@H](CO)NC(=O)[C@@H](NC(=O)[C@@H]1CCCN1C(=O)[C@H](C)NC(=O)[C@@H](N)CC(N)=O)C(C)C)C(=O)N1CCC[C@H]1C(=O)N[C@@H](CCC(N)=O)C(=O)O [DAVUNETIDE]

Reference: ChEMBL document CHEMBL5356948, “Microtubule stabilising peptides: new paradigm towards management of neuronal disorders” (RSC Med Chem, 2023)
